Data on two substances can be found in patent US20080044538A1, “Method For Pigment Solubilization, A pigment Composition And Its Use” (AKZO NOBEL N.V., priority 2004, published 2008).

A short description of the series: Solubilization of pigment from Lucantin Pink CWD into oil with water and surfactant; absorbance of filtered oil-phase. The following applies: type A, mix 3 g, surfactant 2 g, Tobis fish-oil 35 g; for Absorbance at 474 nm after 1.5 days in refrigerator and filtration: 0.200 ml diluted to 10 ml.

For Sorbitan monostearate, the “% recov. after 1.5 days in refrigerator and filtration” value is listed as “(30.7) %”; the “Absorbance at 474 nm after 1.5 days in refrigerator and filtration” value turned out to be 0.174.
With “sorbitan monooleate [Sorbitan ester monooleate]”, the “% recov. after 1.5 days in refrigerator and filtration” value was “(27.4) %”; the “Absorbance at 474 nm after 1.5 days in refrigerator and filtration” value came out at 0.157.
